Assay results reported in patent US20240382446A1, “METHOD FOR IMPROVING FEED INTAKE” (OREXA B.V., priority 2021, published 2024).
Read-outs that look alike come from different tables or passages of the source.

Experiments:
[1] = Weaning of mice with feed comprising various local anesthetics (body weight); format: in vivo
Method: Litters of mice are weaned on day 18 after birth. The siblings are divided over 2 groups (placebo and active) with group sizes of 7-10 siblings.
The pups are offered daily ad libitum food in which a local anesthetic is mixed. Body weight is measured daily.
In TABLES I-IV the body weight is depicted as percentage increase on day 14 in comparison to baseline, as a result of dosing lidocaine (comparative), prilocaine (comparative), bupivacaine (comparative) and benzocaine (according to the invention) to the mice. The baseline is the weight of the mouse at the beginning of the experiment. Placebo and experimental scores are statistically compared by means of student-t tests (* p<0,05; ** p<0,01; *** p<0,001). Doses are indicated on the x-axis and are mg per day for the group of siblings.

[2] = Weaning of piglets with feed comprising various amounts of benzocaine; format: in vivo
Method: Six groups of 21 piglets were treated.
They were fed with controlled amounts of feed (see table V).
Before administration, the food pellets were drenched in water for 30 min and benzocaine (0 g (3×), 5 g, 12,75 g or 17 g, corresponding to a dose of 0, 30, 75 and 100 mg per day per pig, respectively) was added and mixed. The group of piglets receiving feed with 0% benzocaine is referred to as the placebo group.
Amounts of feed consumed were recorded. Piglets were weighed on day 1 (baseline), 4, and 8.

[3] = cited from earlier work
[4] = mice weaned day 18, anesthetic mixed in ad libitum food, day 14 vs baseline
[5] = benzocaine treated pigs vs placebo group

CCN(CC)CC(=O)Nc1c(C)cccc1C [Lidocaine, lidocaine]
growth of the mice (body weight increase) in comparison to placebo [1, 4]: either inactive (low dose) or inhibit the growth of the mice

CCOC(=O)c1ccc(N)cc1 [benzocaine]
fouling and diarrhea [2, 5]: less fouling and less diarrhea | general condition of the pigs [2, 5]: better than that of the placebo group | feed intake relative to placebo ([2]; piglets, after day 4, 30 mg and 75 mg benzocaine per day): increase feed intake | growth of lightest vs heaviest 50% of the animals ([2]; piglets, day 7, group analysis vs placebo): increase of growth in the benzocaine-fed group primarily takes place with the light weight animals | feed intake relative to placebo ([2]; piglets, first 3 days): initial reduction of the feed intake | optimal dose ([2]; piglets, per pig): 75 mg per day | feed conversion (feed needed per weight gain) ([2]; piglets, with increasing benzocaine dosing, placebo about 12,8 kg feed per 1 kg): 2,6 kg of feed per 1 kg of meat | solubility ([3]; dilute acids): more soluble | solubility ([3]; ethanol, chloroform, and ethyl ether): very soluble | solubility ([3]; water): sparingly soluble | growth of the mice (body weight increase) in comparison to placebo ([1]; 200 mg per day for the group of siblings, day 14): inhibits the growth | growth of the mice (body weight increase) in comparison to placebo ([1]; low doses 25, 50 and 100 mg per day for the group of siblings, day 14): increases the growth

CCCNC(C)C(=O)Nc1ccccc1C (stereo not drawn) [prilocaine]
growth of the mice (body weight increase) in comparison to placebo [1, 4]: either inactive (low dose) or inhibit the growth of the mice

CCCCN1CCCCC1C(=O)Nc1c(C)cccc1C (stereo not drawn) [bupivacaine]
growth of the mice (body weight increase) in comparison to placebo [1, 4]: either inactive (low dose) or inhibit the growth of the mice
